ChEMBL document CHEMBL1150200, “Apotirucallane Triterpenes from Dysoxylum roseum” (1991)
Converted amounts (≈) assume the structure as drawn.

Tested on: KB
Assay: Cytotoxicity against human KB cells
Format: functional
Details: read-out: ED50 (the source's name)

For `CC(C)=CC1C[C@@H]([C@@H]2CC=C3[C@]4(C)C(=O)C[C@@H]5[C@](C)(C=CC(=O)[C@]5(C)CO)[C@H]4CC[C@]32C)CO1` (stereo partly specified) [DYSORONE E], which EC50 is on record?
The EC50 was 3.5 µg/mL (≈ 7.5 µM).
